Drawing on the Kinase Knowledgebase extract (Sharma et al. 2016), this text covers IC50 for 34 molecules.

Each structure is given as a SMILES string. Some results are limits rather than exact numbers.

The target of the assay is MAPK14 (human) (UniProt Q16539). The assay can be described thus: Inhibition of MAPK14 by Human Whole Blood Assay. The following applies: blood cells.
Sequence of MAPK14 (human) (Q16539 whole entry, looked up): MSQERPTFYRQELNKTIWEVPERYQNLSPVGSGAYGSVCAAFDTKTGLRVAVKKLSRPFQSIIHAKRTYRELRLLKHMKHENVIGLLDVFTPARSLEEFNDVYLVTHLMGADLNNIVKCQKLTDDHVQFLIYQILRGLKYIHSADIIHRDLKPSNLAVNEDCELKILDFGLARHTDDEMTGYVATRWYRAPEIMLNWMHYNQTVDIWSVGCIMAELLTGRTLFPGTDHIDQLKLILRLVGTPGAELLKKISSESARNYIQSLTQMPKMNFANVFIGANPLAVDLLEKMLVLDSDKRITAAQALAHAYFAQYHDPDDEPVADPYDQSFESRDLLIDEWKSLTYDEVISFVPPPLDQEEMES
In the case of `CCN(C(=O)c1cccc(C2CC2)c1)c1ccnc(N[C@@H](C)c2ccccc2)n1`, the IC50 (in general, the concentration at which inhibition is half-maximal) is below 1 µM.

`CCC(COC)Nc1nccc(N(CC2CCNCC2)C(=O)c2ccc3c(c2)CCO3)n1` (centres undefined) showed an IC50 below 1 µM.

In turn, `CCCN(C(=O)c1ccc2ccccc2c1)c1ccnc(NC(C)C)n1` had an IC50 of at most 1 µM.

The molecule `CCC(Nc1cc(N(Cc2ccc(F)cc2)C(=O)c2ccc3ccccc3c2)ccn1)c1ccccc1` (centres undefined) yielded an IC50 of at most 1 µM.

Turning to `CC(C)C(C)Nc1nccc(N(CC2CCNCC2)C(=O)c2ccc3c(c2)CCO3)n1` (centres undefined), the IC50 is below 1 µM.

The molecule `C[C@H](Nc1cc(N(Cc2ccc(F)cc2)C(=O)c2ccc3ccccc3c2)ccn1)c1ccc2ccccc2c1` registered an IC50 of at most 1 µM.

Regarding `CC(C)Nc1nccc(N(Cc2ccc(F)cc2)C(=O)c2ccc3ccccc3c2)n1`, the IC50 is at most 1 µM.

`COCCN(C(=O)c1cccc(C)c1C)c1ccnc(N[C@@H](C)c2ccccc2)n1`: the half-inhibitory concentration (IC50) was below 1 µM.

For the molecule `C[C@H](Nc1nccc(N(CC2CC2)C(=O)c2ccc3c(c2)CCO3)n1)c1ccccc1`, the IC50 is below 1 µM.

In turn, `C[C@H](Nc1nccc(N(CC2CC2)C(=O)c2ccc3ccccc3c2)n1)c1ccccc1` had an IC50 below 1 µM.

In turn, `CCN(C(=O)c1cccc(C)c1C)c1ccnc(N[C@@H](C)c2ccccc2)n1` came in with an IC50 below 1 µM.

Molecule `C[C@H](Nc1cc(N(Cc2ccc(F)cc2)C(=O)c2ccccc2)ccn1)c1ccccc1` showed an IC50 of at most 1 µM.

In turn, `C[C@H](Nc1nccc(N(CC2CCNCC2)C(=O)c2sc3ccccc3c2Cl)n1)c1ccccc1` returned an IC50 below 1 µM.

In turn, `CCc1cccc(C(=O)N(CC)c2ccnc(N[C@@H](C)c3ccccc3)n2)c1` gave an IC50 below 1 µM.

The molecule `CC(C)Nc1nccc(N(CC2CCNCC2)C(=O)c2ccc3c(c2)CCO3)n1` came in with an IC50 below 1 µM.

Turning to `CC(C)Nc1nccc(N(CCCCCN)C(=O)c2ccc3c(c2)CCO3)n1`, the IC50 was below 1 µM.

In turn, `CC(Nc1cc(N(Cc2ccc(F)cc2)C(=O)c2ccc3ccccc3c2)ccn1)c1ccc(F)cc1` (centres undefined) registered an IC50 of at most 1 µM.

`C[C@H](Nc1nccc(N(C)C(=O)c2ccc3ccccc3c2)n1)c1ccccc1` gave an IC50 of at most 1 µM.

`C[C@H](Nc1nccc(N(C(=O)c2ccc3ccccc3c2)C2CC(C)(C)NC(C)(C)C2)n1)c1ccccc1` yielded an IC50 below 1 µM.

`COCC(C)Nc1nccc(N(CCCCN)C(=O)c2ccc3c(c2)CCO3)n1` (centres undefined) registered a half-inhibitory concentration (IC50) below 1 µM.

For the molecule `O=C(c1ccc2ccccc2c1)N(CC1CCNCC1)c1ccnc(NC2CCOCC2)n1`, the IC50 was below 1 µM.

Consider `C[C@@H](Nc1cc(N(Cc2ccc(F)cc2)C(=O)c2ccc3ccccc3c2)ccn1)c1ccccc1`, for which the IC50 was at most 1 µM.

For `CC(C)Nc1nccc(N(C(=O)c2ccc3ccccc3c2)C(C)C)n1`, the IC50 is at most 1 µM.

`COCCCN(C(=O)c1ccc2ccccc2c1)c1ccnc(N[C@@H](C)c2ccccc2)n1` came in with an IC50 below 1 µM.

Molecule `C[C@H](Nc1nccc(N(CC2CCNCC2)C(=O)c2ccc3c(c2)CCO3)n1)c1ccccc1` yielded an IC50 below 1 µM.

Turning to `CC(C)Nc1nccc(N(CC2CC[C@H](N)C2)C(=O)c2ccc3c(c2)CCO3)n1` (some centres undefined), the IC50 was below 1 µM.

`O=C(c1ccc2ccccc2c1)N(Cc1ccc(F)cc1)c1ccnc(NCc2ccccc2)c1` displayed an IC50 of at most 1 µM.

Consider `CC(Nc1cc(N(Cc2ccc(F)cc2)C(=O)c2ccc3ccccc3c2)ccn1)c1ccc(Cl)cc1` (centres undefined), for which the IC50 is at most 1 µM.

`O=C(c1ccc2ccccc2c1)N(Cc1ccc(F)cc1)c1ccnc(N[C@H]2CCc3ccccc32)c1` displayed an IC50 of at most 1 µM.

In the case of `C[C@H](Nc1nccc(N(Cc2ccc(F)cc2)C(=O)c2ccc3ccccc3c2)n1)c1ccccc1`, the IC50 was at most 1 µM.

`CCC(C)Nc1nccc(N(CC2CCNCC2)C(=O)c2ccc3c(c2)CCO3)n1` (centres undefined) registered an IC50 below 1 µM.

`C[C@H](Nc1nccc(N(CC2CCNCC2)C(=O)c2ccc3ccccc3c2)n1)c1ccccc1` yielded an IC50 below 1 µM.

In the case of `O=C(c1ccc2ccccc2c1)N(Cc1ccc(F)cc1)c1ccnc(NC(c2ccccc2)c2ccccc2)c1`, the IC50 is at most 1 µM.

In turn, `CCN(C(=O)c1ccc2ccccc2c1)c1ccnc(N[C@@H](C)c2ccccc2)n1` yielded an IC50 of at most 1 µM.
